In patent US11369609B2, “Small molecule Wnt inhibitor as treatment for dyslipidemia” (Yale University, priority 2019, dated 2022):
“Also recorded” adds a separate entry of the source.

Experiments:
canonical Wnt signaling [1] = experiment: Atherosclerosis in high fat diet-fed Apoe−/− and DKO TCF/Lef-LacZ mice; assay type: in vivo
Source text: Apoe −/− and endothelial GR KO/Apo E KO double knockout (DKO) mice were fed a high fat diet containing 1.25% cholesterol (Research Diets) for the time indicated. In some experiments, animals of both genotype were bred to the BAT-GAL (ß-catenin/TCF/LEF) reporter transgenic mouse. Mice were sacrificed and the aortas removed. Aortas were stained with X-galactosidase (Sigma-Aldrich) according to the manufacturer's instructions. In other aortas, total RNA was extracted and cDNA was made as described above. The custom PCR array was used to evaluate pathways of interest as described. All studies were performed according to a protocol approved by the Institutional Care and use Committee at Yale University School of Medicine and were consistent with the National Institutes of Health Guidelines for the Care of Laboratory Animals.
Mice were fasted for 12-15 hours and blood was collected by retro-orbital venous puncture. Whole blood was spun down and plasma stored at −80° C. Total cholesterol and triglyceride levels were measured enzymatically by kits from Wako and Sigma, respectively, according to the manufacturer's instructions.
At the completion of high-fat diet feeding mice were anesthetized and euthanized. Mouse hearts were perfused with PBS and then 4% paraformaldehyde (PFA) and the aortas and were dissected out using a dissecting microscope and maintained in PFA overnight. Whole aortas were stained with Oil Red O (Sigma) to quantify lesion area. Oil Red O stock solution (35 ml, 0.2% weight/volume in methanol) was mixed with 10 ml 1 M NaOH and filtered. Aortas were briefly rinsed in 78% methanol, incubated in Oil Red O for 45 minutes and then destained in 78% methanol for 5 minutes and mounted on microscopic slides. Lipid staining and lesion size were quantified by averaging six sections from the same mouse using the IMAGE J program.
In order to visualize the activation of canonical Wnt signaling, Apoe^−/−, GR^fl/fl, Tie2 Cre−; TCF/Lef-LacZ (Apoe^−/−) mice were bred with Apoe^−/−, GR^fl/fl, Tie2 Cre+; TCF/Lef-LacZ (DKO) mice. Apoe^−/− and DKO mice were fed a high fat diet (HFD) for 12 weeks. The Wnt inhibitor (wnti) LGK974 at a dose of 5 mg/kg body weight, or vehicle, was administered 6 days/week by oral gavage from 4-12 weeks. The aortas of vehicle-treated control animals and wnti-treated animals (n=6-7/group) were stained for LacZ (FIG. 11B). A LacZ(−) aorta was included as a control. […] Aortic area stained is quantified in the corresponding graph (FIG. 11B). Body weight of the animals of both genotypes with and without Wnti treatment was measured. […] Triglycerides, total cholesterol and HDL cholesterol were measured after 12 weeks of diet feeding in animals of both genotypes in the presence of absence of Wnti. […] Lipid deposition in aortas of wnti- or vehicle-treated Apoe^−/− and DKO treated mice was analyzed by Oil Red O staining. Atherogenic lesion area was calculated by using the Image J program. […] Masson Trichrome and H&E staining was performed in the brachiocephalic artery of Wnti- or sham-treated Apoe^−/− and DKO treated mice (FIG. 11F). Lesion size was measured using Image J program.

canonical Wnt signaling [2] = experiment: Renal fibrosis in unilateral ureteral obstruction (UUO) mice treated with Wnt inhibitor; assay type: in vivo
Experimental: UUO surgery procedure was performed as previously described (44). Briefly, mice were anesthetized with isoflurane (3%-5% for induction and 1%-3% for maintenance). Mice were shaved on the left side of the abdomen, a vertical incision was made through the skin with a scalpel, and the skin was retracted. A second incision was made through the peritoneum to expose the kidney. The left ureter was ligated twice 15 mm below the renal pelvis with surgical silk, and the ureter was then severed between the 2 ligatures. Then, the ligated kidney was placed gently back into its correct anatomical position, and sterile saline was added to replenish loss of fluid. The incisions were sutured and mice were individually caged. Buprenorphine was used as an analgesic. The first dose was administered 30 minutes before surgery and then every 12 h for 72 h, at a dose of 0.05 mg/kg subcutaneously. Mice were sacrificed and kidney and blood samples were harvested after perfusion with PBS at 10 days after UUO. Contralateral kidneys were used as a nonfibrotic control for all experiments using this model.
A point-counting method was utilized to evaluate the relative area of the mesangial matrix. PAS-stained glomeruli from each mouse were analyzed using a digital microscope screen grid containing 540 (27×20) points. Masson's trichrome-stained images were evaluated by ImageJ software, and the fibrotic areas were estimated.
Deparaffinized sections were incubated with picrosirius red solution for 1 hour at room temperature. The slides were washed twice with acetic acid solution for 30 seconds per wash. The slides were then dehydrated in absolute alcohol three times, cleared in xylene, and mounted with a synthetic resin. Sirius red staining was analyzed using ImageJ software, and fibrotic areas were quantified.
Paraffin-embedded kidney sections (5 μm thick) were deparaffinized and rehydrated (2 min in xylene, four times; 1 min in 100% ethanol, twice; 1 min in 95% ethanol; 45 s in 70% ethanol; and 1 min in distilled water), and the antigen was retrieved in a 10 mM citrate buffer pH 6 at 98° C. for 60 min. To block the endogenous peroxidase, all sections were incubated in 0.3% hydrogen peroxide for 10 min. The immunohistochemistry was performed using a Vectastain ABC Kit (Vector Laboratories, Burlingame, Calif.). Mouse anti-[…] antibody (1:100) and CPT1a (Abnova; H00001374-DO1P; 1:100) antibody was used. In the negative controls, the primary antibody was omitted and replaced with the blocking solution.
Frozen kidney sections (5 μm) were used for immunofluorescence; double positive labeling with CD31/αSMA, CD31/TGFβR1 and E-cadherin/αSMA was measured. Briefly, frozen sections were dried and placed in acetone for 10 min at −30° C. Once the sections were dried, they were washed twice in phosphate-buffered saline (PBS) for 5 min and then blocked in 2% bovine serum albumin/PBS for 30 min at room temperature. Thereafter, the sections were incubated in primary antibody (1:100) for 1 hour and washed in PBS (5 min) three times. Next, the sections were incubated with the secondary antibodies for 30 min, washed with PBS three times (5 min each), and mounted with mounting medium with DAPI (Vector Laboratories, Burlingame, Calif.). The immune-labeled sections were analyzed by fluorescence microscopy. For each mouse, original magnification of ×400 pictures were obtained from six different areas, and quantification was performed.
To determine whether inhibition of the Wnt signaling pathway could ameliorate the observed fibrosis, LGK974, a small molecule inhibitor of all secreted Wnts (43), was utilized. FIGS. 21A-21B depict the schematic diagram showing the experimental protocol for LGK974 treatment in diabetic CD-1 and UUO mice.

[3] = 5 mg/kg oral gavage 6 days/week, weeks 4-12 of HFD, both genotypes

## Cc1cc(-c2ncc(CC(=O)Nc3ccc(-c4cnccn4)cn3)cc2C)ccn1 [LGK974]
Canonical Wnt signaling [1]; 5 mg/kg oral gavage 6 days/week, weeks 4-12 of HFD
  atherosclerosis prognosis / atherogenic phenotype: significantly improves the atherogenic phenotype; also recorded: surprising improvement in atherosclerosis prognosis
Canonical Wnt signaling [1]; [3]
  activation of canonical Wnt signaling (LacZ staining in aortas): clearly attenuated
  body weight: no weight loss
Canonical Wnt signaling [1]; Masson Trichrome and H&E staining
  lesion size in brachiocephalic arteries: dramatically reduced lesion size
Canonical Wnt signaling [1]; after 12 weeks of HFD, both genotypes
  cholesterol: dramatic reduction in cholesterol; also recorded: enormous
Canonical Wnt signaling [1]; both genotypes
  lipid deposition in aortas (Oil Red O staining): dramatic reduction in lipid deposition
Canonical Wnt signaling [1]; in vivo use in atherogenic mouse model
  decrease in cholesterol levels: about 50%
Canonical Wnt signaling [1]; mouse, in vivo
  H&E and Oil Red O staining in the aortic root of heart sections: histological improvement
Canonical Wnt signaling [2]; LGK974 5 mg/kg
  ECM deposition: greatly diminished
  collagen accumulation: greatly diminished
  glomerulosclerosis: greatly diminished
  relative area fibrosis: greatly diminished
Canonical Wnt signaling [2]; kidney CD31-positive cells
  endothelial GR level: significantly restored
Canonical Wnt signaling [2]; kidney immunohistochemistry
  level of β-catenin: suppressed
